Assay results reported in US4426519A, “7-(2-Amino-4-thiazolyl)-acetamido cephalosporanic acids” (Roussel Uclaf, priority 1979, dated 1984).
Counter-ions that a name gives are not always drawn. Like-named read-outs stand apart in the source and are kept apart here.

Tests used:
[1] = test system: Staphylococcus aureus UC 1 128 Pen-resistant; assay: MIC, dilution in liquid medium; assay type: cell-based
Description: (§1) The method used was a dilution of a liquid medium where a series of tubes received the same quantity of a sterile nutritive media and increasing doses of the test compounds were placed therein. Then each tube was seeded with a bacterial strain and was incubated for 24 to 48 hours at 37° C. in an oven. The increasing inhibition was determined by transillulumination to determine the minimum inhibiting concentration (MIC in μg/ml) and the results are reported in the following Tables.

[2] = test system: Klebsiella pneumoniae 2 536 Resistant Gentamycine; assay: MIC, dilution in liquid medium; assay type: cell-based
Description: as §1

[3] = test system: Bacillus subtilis ATCC 6 633; assay: MIC, dilution in liquid medium; assay type: cell-based
Description: as §1

Providencia Du 48 = assay: MIC, dilution in liquid medium; assay type: cell-based
Description: as §1

Enterobacter cloacae 681 = assay: MIC, dilution in liquid medium; assay type: cell-based
Description: as §1

[4] = test system: Escherichia Coli sensitive Tetracycline ATCC 9 637; assay: MIC, dilution in liquid medium; assay type: cell-based
Description: as §1

[5] = test system: Staphylococcus aureus ATCC 6 538 Pen Sensitive; assay: MIC, dilution in liquid medium; assay type: cell-based
Description: as §1

[6] = test system: Serratia Resistant Gentamycine 2 532; assay: MIC, dilution in liquid medium; assay type: cell-based; conditions: read-out: MIC
Description: as §1

[7] = test system: Pseudomonas 8951 Resistant Gentamycine Tetracycline; assay: MIC, dilution in liquid medium; assay type: cell-based
Description: as §1

[8] = test system: Proteus mirabilis (indol-) A 235; assay: MIC, dilution in liquid medium; assay type: cell-based
Description: as §1

[9] = test system: Staphylococcus aureus exp.n°54 146; assay: MIC, dilution in liquid medium; assay type: cell-based
Description: as §1

[10] = test system: Escherichia Coli Resistant Tetracycline ATCC 11 303; assay: MIC, dilution in liquid medium; assay type: cell-based
Description: as §1

[11] = test system: Salmonella typhimurium 420; assay: MIC, dilution in liquid medium; assay type: cell-based; conditions: Salmonella enterica, read-out: MIC
Description: as §1

[12] = test system: Streptococcus pyogenes A 561; assay: MIC, dilution in liquid medium; assay type: cell-based
Description: as §1

[13] = test system: Klebsiella pneumoniae Exp. 52 145; assay: MIC, dilution in liquid medium; assay type: cell-based; conditions: read-out: MIC
Description: as §1

[14] = test system: Escherichia Coli Resistant Gentamycine, Tobramycine R 55 123 D; assay: MIC, dilution in liquid medium; assay type: cell-based; conditions: read-out: MIC
Description: as §1

Proteus Morganii A236 = assay: Experimental infection of Proteus Morganii A236 in mice; assay type: in vivo; conditions: for Mice surviving on 8th day: cutaneously 1,5 and 24 hours after injection, controls 0/10; for Mortality after hours: cutaneously, group of 10 mice
Description: The activity of the product of Example 1 against an experimental infection of Proteus Morganii […] was determined in groups of 10 mice weighing an average of 20.5 g which were infected by intraperitoneal injection of 0.5 ml of a culture thereof in a medium with a pH of 7 diluted to one tenth.

Proteus mirabilis A 235 = assay: Experimental infection of Proteus mirabilis in mice; assay type: in vivo; conditions: for Mice surviving on 8th day: subcutaneous 1, 5 and 24 hours after infection, controls 0/10; for Mortality after hours: subcutaneous, group of 10 mice
Description: Groups of 10 mice with an average weight of 21.5 g received intraperitoneally 0.5 ml of a 24 hour old culture in oxoid bouillon of Proteus mirabilis A 235 diluted 1/10 with distilled water. The mice then received subcutaneously the compound of Example 1 one hour and 5 and 24 hours after the infection and the results are reported in the following Table.

[15] = test system: Klebsiella Pneumonia No. 52,145; assay: Experimental infection of Klebsiella Pneumoniae in mice; assay type: in vivo; conditions: for Mice surviving on 8th day: by injection 1,5 and 24 hours after infection, controls 0/10; for Mortality after hours: by injection, group of 10 mice
Description: The activity of the compound of Example 1 against an experimental infection of Klebsiella Pneumonia No. 52,145 was determined on groups of 10 mice having an average weight of 21 g by intraperitoneal injection of 0.5 ml of a culture thereof with a pH of 6 diluted to 1/1500.

Escherichia coli TO26 B6 = assay: Experimental infection with Escherichia coli TO26 B6 in mice; assay type: in vivo; conditions: for No. of mice surviving 8th day: subcutaneous 1, 5 and 24 hours after infection, control 0/10; for Mortality after hours: subcutaneous, group of 10 mice
Description: The product of Example 1 was studied for its activity against an experimental infection of Escherichia coil in groups of 10 male mice weighing about 21.5 g. The mice received an intraperitoneal injection of 0.5 ml of a 24 hour old culture in a nutritive media of Escherichia Coli TO26 B6 of the Pasteur Institute diluted 1/5 with distilled water. The test product was administered subcutaneously 1 hour and 5 and 24 hours after the infection and the number of dead was determined after 8 days.

CC(=O)OCC1=C(C(=O)O)N2C(=O)C(NC(=O)/C(=N\OCCSC(=N)N)c3csc(N)n3)C2SC1 (stereo not drawn) [Example 1, Trifluoroacetate of the syn isomer of 3-acetoxymethyl-7-[2-(2-amino-4-thiazolyl)-2-(2-aminoiminomethylthio-ethoxyimino)acetamido]-ceph-3-eme-4-carboxylic acid] was tested, and the MIC ([1]; UC1, 24 h) was 2 µg/mL, the MIC ([1]; UC1, 48 h) was 3 µg/mL and the MIC ([2]; 24 h) was 1 µg/mL. The MIC ([2]; 48 h) was 2 µg/mL, the MIC ([3]; ATCC6, 24 h) was 1 µg/mL and the MIC ([3]; ATCC6, 48 h) was 1 µg/mL. The MIC (Providencia Du 48; DU48, 24 h) was 2 µg/mL, the MIC (Providencia Du 48; DU48, 48 h) was 3 µg/mL and the MIC (Enterobacter cloacae 681; Enterobacter cloacae, 681, 24 h) was 2 µg/mL. The MIC (Enterobacter cloacae 681; Enterobacter cloacae, 681, 48 h) was 2 µg/mL, the MIC ([4]; ATCC9, 24 h) was 1 µg/mL and the MIC ([4]; ATCC9, 48 h) was 1 µg/mL. The MIC ([5]; ATCC6, 24 h) was 2 µg/mL, the MIC ([5]; ATCC6, 48 h) was 2 µg/mL and the MIC ([6]; 24 h) was 0.5 µg/mL. For the same molecule, the MIC ([6]; 48 h) was 0.5 µg/mL, the MIC ([7]; 24 h) was 20 µg/mL and the MIC ([7]; 48 h) was 20 µg/mL. For the same molecule, the MIC ([8]; 24 h) was 0.1 µg/mL, the MIC ([8]; 48 h) was 0.1 µg/mL and the MIC ([9]; 24 h) was 2 µg/mL. The MIC ([9]; 48 h) was 2 µg/mL, the MIC ([10]; ATCC11, 24 h) was 0.05 µg/mL and the MIC ([10]; ATCC11, 48 h) was 0.05 µg/mL. The MIC ([11]; 24 h) was 0.5 µg/mL, the MIC ([11]; 48 h) was 0.5 µg/mL and the MIC ([12]; A561, 24 h) was 0.02 µg/mL. For the same molecule, the MIC ([12]; A561, 48 h) was 0.02 µg/mL, the MIC ([13]; EXP.52145, 24 h) was 0.5 µg/mL and the MIC ([13]; EXP.52145, 48 h) was 0.5 µg/mL. The MIC ([14]; 24 h) was 0.5 µg/mL, the MIC ([14]; 48 h) was 0.5 µg/mL and the “Mice surviving on 8th day” value (Proteus Morganii A236; dose 0,1 mg) was 10/10. For the same molecule, the “Mice surviving on 8th day” value (Proteus Morganii A236; dose 0,05 mg) was 2/10, the “Mice surviving on 8th day” value (Proteus Morganii A236; dose 0,5 mg) was 10/10 and the Mortality after hours (Proteus Morganii A236; dose 0,05 mg, 4H) was 1. For the same molecule, the Mortality after hours (Proteus Morganii A236; dose 0,05 mg, 6H15) was 1, the Mortality after hours (Proteus Morganii A236; dose 0,05 mg, 6H) was 2 and the Mortality after hours (Proteus Morganii A236; dose 0,05 mg, 21H10) was 3. The Mortality after hours (Proteus Morganii A236; dose 0,05 mg, 45H20) was 1, the “Mice surviving on 8th day” value (Proteus Morganii A236; dose 0,25 mg) was 10/10 and the “Mice surviving on 8th day” value (Proteus mirabilis A 235; dose 0,1 mg) was 10/10. The “Mice surviving on 8th day” value (Proteus mirabilis A 235; dose 0,05 mg) was 10/10, the “Mice surviving on 8th day” value (Proteus mirabilis A 235; dose 0,5 mg) was 10/10 and the “Mice surviving on 8th day” value (Proteus mirabilis A 235; dose 0,25 mg) was 10/10. For the same molecule, the “Mice surviving on 8th day” value (Proteus mirabilis A 235; dose 0,025 mg) was 7/10, the Mortality after hours (Proteus mirabilis A 235; dose 0,025 mg, 23H45) was 1 and the Mortality after hours (Proteus mirabilis A 235; dose 0,025 mg, 25 H) was 1. For the same molecule, the Mortality after hours (Proteus mirabilis A 235; dose 0,025 mg, 31 H) was 1, the “Mice surviving on 8th day” value ([15]; dose 0,1 mg) was 6/10 and the Mortality after hours ([15]; dose 0,1 mg, 4 J) was 1. The Mortality after hours ([15]; dose 0,1 mg, 5 J) was 1, the Mortality after hours ([15]; dose 0,1 mg, 6 J) was 1 and the Mortality after hours ([15]; dose 0,1 mg, 8 J) was 1. For the same molecule, the “Mice surviving on 8th day” value ([15]; dose 0,5 mg) was 9/10, the Mortality after hours ([15]; dose 0,5 mg, 6 J) was 1 and the “Mice surviving on 8th day” value ([15]; dose 0,25 mg) was 8/10. For the same molecule, the Mortality after hours ([15]; dose 0,25 mg, 4 J) was 1, the Mortality after hours ([15]; dose 0,25 mg, 6 J) was 1 and the “Mice surviving on 8th day” value ([15]; dose 1 mg) was 10/10. For the same molecule, the “Mice surviving on 8th day” value ([15]; dose 1,5 mg) was 10/10, the “No. of mice surviving 8th day” value (Escherichia coli TO26 B6; dose 0.1 mg) was 6/10 and the Mortality after hours (Escherichia coli TO26 B6; dose 0.1 mg, 21H30) was 1. It also gave a Mortality after hours (Escherichia coli TO26 B6; dose 0.1 mg, 24 H) of 1, a Mortality after hours (Escherichia coli TO26 B6; dose 0.1 mg, 28 H) of 1 and a Mortality after hours (Escherichia coli TO26 B6; dose 0.1 mg, 36 H) of 1. For the same molecule, the “No. of mice surviving 8th day” value (Escherichia coli TO26 B6; dose 0.25 mg) was 10/10.
